According to PubChem BioAssay (NCI):
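In this assay, cells in 96-well plates receive the compound at five concentrations for 48 hours. Endpoints are linearly interpolated between the surrounding concentrations. Here, GI50 denotes the concentration required for 50% inhibition of growth. TGI: total growth inhibition.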

What was measured:
Test in all cases: NCI anticancer screen, dose series, 48 h
K-562 leukemia = tested on: K-562 leukemia
RXF 393 renal = tested on: RXF 393 renal
CAKI-1 renal = tested on: CAKI-1 renal
T-47D breast = tested on: T-47D breast
SF-539 CNS = tested on: SF-539 CNS
OVCAR-3 ovarian = tested on: OVCAR-3 ovarian
NCI/ADR-RES ovarian = tested on: NCI/ADR-RES ovarian
IGROV1 ovarian = tested on: IGROV1 ovarian
M14 melanoma = tested on: M14 melanoma
NCI-H226 lung = tested on: NCI-H226 lung
SF-295 CNS = tested on: SF-295 CNS
UACC-62 melanoma = tested on: UACC-62 melanoma
EKVX NSCLC = tested on: EKVX NSCLC
NCI-H460 lung = tested on: NCI-H460 lung
SF-268 CNS = tested on: SF-268 CNS
A549 NSCLC = tested on: A549 NSCLC
SK-OV-3 ovarian = tested on: SK-OV-3 ovarian
U251 CNS = tested on: U251 CNS
HCT-15 colon = tested on: HCT-15 colon
MDA-MB-231 breast = tested on: MDA-MB-231 breast
HL-60(TB) leukemia = tested on: HL-60(TB) leukemia
NCI-H522 lung = tested on: NCI-H522 lung
MDA-MB-468 breast = tested on: MDA-MB-468 breast
OVCAR-5 ovarian = tested on: OVCAR-5 ovarian
A498 renal = tested on: A498 renal
NCI-H23 lung = tested on: NCI-H23 lung
DU-145 prostate = tested on: DU-145 prostate
UACC-257 melanoma = tested on: UACC-257 melanoma
KM12 colon = tested on: KM12 colon
PC-3 prostate = tested on: PC-3 prostate
HT29 colon = tested on: HT29 colon
MOLT-4 leukemia = tested on: MOLT-4 leukemia
HCC-2998 colon = tested on: HCC-2998 colon
HOP-92 NSCLC = tested on: HOP-92 NSCLC
SK-MEL-28 melanoma = tested on: SK-MEL-28 melanoma
SK-MEL-2 melanoma = tested on: SK-MEL-2 melanoma
HOP-62 NSCLC = tested on: HOP-62 NSCLC
RPMI-8226 leukemia = tested on: RPMI-8226 leukemia
BT-549 breast = tested on: BT-549 breast
MDA-MB-435 = tested on: MDA-MB-435
LOX IMVI melanoma = tested on: LOX IMVI melanoma
CCRF-CEM leukemia = tested on: CCRF-CEM leukemia
OVCAR-8 ovarian = tested on: OVCAR-8 ovarian
786-0 renal = tested on: 786-0 renal
SNB-75 CNS = tested on: SNB-75 CNS
SN12C renal = tested on: SN12C renal
SK-MEL-5 melanoma = tested on: SK-MEL-5 melanoma
UO-31 renal = tested on: UO-31 renal
HS 578T breast = tested on: HS 578T breast
SNB-19 CNS = tested on: SNB-19 CNS
HCT-116 colon = tested on: HCT-116 colon
SW-620 colon = tested on: SW-620 colon
MALME-3M melanoma = tested on: MALME-3M melanoma
ACHN renal = tested on: ACHN renal
OVCAR-4 ovarian = tested on: OVCAR-4 ovarian
COLO 205 colon = tested on: COLO 205 colon
TK-10 renal = tested on: TK-10 renal
MCF7 breast = tested on: MCF7 breast

Q: How did the GI50 (K-562 leukemia) turn out when `COc1ccc2[nH]c(O)c(N=NC(=O)Cn3c(-c4ccccc4)nc4cc(C)ccc43)c2c1` was run?
A: 18 µM

Q: And the TGI (K-562 leukemia)?
A: 62.4 µM

Q: What about the GI50 (RXF 393 renal) of the same compound?
A: 2.37 µM

Q: What about the TGI (RXF 393 renal) of the same compound?
A: 12.6 µM

Q: What about the GI50 (CAKI-1 renal) of the same compound?
A: 12.6 µM

Q: And the TGI (CAKI-1 renal)?
A: 27 µM

Q: And the GI50 (T-47D breast)?
A: 7.33 µM

Q: What about the TGI (T-47D breast) of the same compound?
A: 28.1 µM

Q: And the GI50 (SF-539 CNS)?
A: 14.9 µM

Q: What about the TGI (SF-539 CNS) of the same compound?
A: 28.5 µM

Q: What about the GI50 (OVCAR-3 ovarian) of the same compound?
A: 17.5 µM

Q: What about the TGI (OVCAR-3 ovarian) of the same compound?
A: 42.9 µM

Q: And the GI50 (NCI/ADR-RES ovarian)?
A: 16.8 µM

Q: And the TGI (NCI/ADR-RES ovarian)?
A: 34.5 µM

Q: And the GI50 (IGROV1 ovarian)?
A: 14.7 µM

Q: And the TGI (IGROV1 ovarian)?
A: 29.6 µM

Q: And the GI50 (M14 melanoma)?
A: 15.7 µM

Q: What about the TGI (M14 melanoma) of the same compound?
A: 31.2 µM

Q: What about the GI50 (NCI-H226 lung) of the same compound?
A: 14 µM

Q: And the TGI (NCI-H226 lung)?
A: 30.7 µM

Q: And the GI50 (SF-295 CNS)?
A: 14.3 µM

Q: And the TGI (SF-295 CNS)?
A: 29 µM

Q: What about the GI50 (UACC-62 melanoma) of the same compound?
A: 12.4 µM

Q: And the TGI (UACC-62 melanoma)?
A: 25.5 µM

Q: And the GI50 (EKVX NSCLC)?
A: 11 µM

Q: What about the TGI (EKVX NSCLC) of the same compound?
A: 24.6 µM

Q: And the GI50 (NCI-H460 lung)?
A: 19.3 µM

Q: And the TGI (NCI-H460 lung)?
A: 42.3 µM

Q: And the GI50 (SF-268 CNS)?
A: 18.5 µM

Q: What about the TGI (SF-268 CNS) of the same compound?
A: 64.2 µM

Q: What about the GI50 (A549 NSCLC) of the same compound?
A: 16.6 µM

Q: What about the TGI (A549 NSCLC) of the same compound?
A: 36.7 µM

Q: What about the GI50 (SK-OV-3 ovarian) of the same compound?
A: 15.8 µM

Q: What about the TGI (SK-OV-3 ovarian) of the same compound?
A: 31.3 µM

Q: What about the GI50 (U251 CNS) of the same compound?
A: 17 µM

Q: And the TGI (U251 CNS)?
A: 36.2 µM

Q: And the GI50 (HCT-15 colon)?
A: 15.5 µM

Q: What about the TGI (HCT-15 colon) of the same compound?
A: 31.1 µM

Q: What about the GI50 (MDA-MB-231 breast) of the same compound?
A: 13.1 µM

Q: And the TGI (MDA-MB-231 breast)?
A: 26.4 µM

Q: And the GI50 (HL-60(TB) leukemia)?
A: 17.5 µM

Q: And the TGI (HL-60(TB) leukemia)?
A: 42.3 µM

Q: What about the GI50 (NCI-H522 lung) of the same compound?
A: 15.2 µM

Q: And the TGI (NCI-H522 lung)?
A: 32.4 µM

Q: And the GI50 (MDA-MB-468 breast)?
A: 14.9 µM

Q: And the TGI (MDA-MB-468 breast)?
A: 30.2 µM

Q: And the GI50 (OVCAR-5 ovarian)?
A: 14.9 µM

Q: What about the TGI (OVCAR-5 ovarian) of the same compound?
A: 28.6 µM

Q: What about the GI50 (A498 renal) of the same compound?
A: 17.1 µM

Q: What about the TGI (A498 renal) of the same compound?
A: 32.6 µM

Q: And the GI50 (NCI-H23 lung)?
A: 16.7 µM

Q: What about the TGI (NCI-H23 lung) of the same compound?
A: 31.8 µM

Q: And the GI50 (DU-145 prostate)?
A: 19.9 µM

Q: And the TGI (DU-145 prostate)?
A: 44.4 µM

Q: And the GI50 (UACC-257 melanoma)?
A: 15.9 µM

Q: What about the TGI (UACC-257 melanoma) of the same compound?
A: 31.7 µM

Q: What about the GI50 (KM12 colon) of the same compound?
A: 18.7 µM

Q: And the TGI (KM12 colon)?
A: 42.5 µM

Q: What about the GI50 (PC-3 prostate) of the same compound?
A: 10.7 µM

Q: And the TGI (PC-3 prostate)?
A: 26.5 µM

Q: And the GI50 (HT29 colon)?
A: 21.5 µM

Q: What about the TGI (HT29 colon) of the same compound?
A: 55.5 µM

Q: What about the GI50 (MOLT-4 leukemia) of the same compound?
A: 10.6 µM

Q: What about the TGI (MOLT-4 leukemia) of the same compound?
A: 37.2 µM

Q: And the GI50 (HCC-2998 colon)?
A: 17.5 µM

Q: What about the TGI (HCC-2998 colon) of the same compound?
A: 31.6 µM

Q: And the GI50 (HOP-92 NSCLC)?
A: 3.3 µM

Q: What about the TGI (HOP-92 NSCLC) of the same compound?
A: 18 µM

Q: What about the GI50 (SK-MEL-28 melanoma) of the same compound?
A: 16.5 µM

Q: And the TGI (SK-MEL-28 melanoma)?
A: 30.9 µM

Q: What about the GI50 (SK-MEL-2 melanoma) of the same compound?
A: 14.9 µM

Q: What about the TGI (SK-MEL-2 melanoma) of the same compound?
A: 30.4 µM

Q: And the GI50 (HOP-62 NSCLC)?
A: 16 µM

Q: And the TGI (HOP-62 NSCLC)?
A: 35.6 µM

Q: And the GI50 (RPMI-8226 leukemia)?
A: 9.97 µM

Q: What about the TGI (RPMI-8226 leukemia) of the same compound?
A: 35.9 µM

Q: And the GI50 (BT-549 breast)?
A: 13.4 µM

Q: What about the TGI (BT-549 breast) of the same compound?
A: 27.9 µM

Q: And the GI50 (MDA-MB-435)?
A: 16.7 µM

Q: What about the TGI (MDA-MB-435) of the same compound?
A: 34.7 µM

Q: And the GI50 (LOX IMVI melanoma)?
A: 14.9 µM

Q: What about the TGI (LOX IMVI melanoma) of the same compound?
A: 28.3 µM

Q: And the GI50 (CCRF-CEM leukemia)?
A: 17.3 µM

Q: And the TGI (CCRF-CEM leukemia)?
A: 43.6 µM

Q: And the GI50 (OVCAR-8 ovarian)?
A: 15.7 µM

Q: What about the TGI (OVCAR-8 ovarian) of the same compound?
A: 37.1 µM

Q: And the GI50 (786-0 renal)?
A: 16 µM

Q: And the TGI (786-0 renal)?
A: 30.2 µM

Q: What about the GI50 (SNB-75 CNS) of the same compound?
A: 9.86 µM

Q: What about the TGI (SNB-75 CNS) of the same compound?
A: 24.2 µM

Q: What about the GI50 (SN12C renal) of the same compound?
A: 13.5 µM

Q: And the TGI (SN12C renal)?
A: 26.9 µM

Q: What about the GI50 (SK-MEL-5 melanoma) of the same compound?
A: 15 µM

Q: What about the TGI (SK-MEL-5 melanoma) of the same compound?
A: 28.5 µM

Q: What about the GI50 (UO-31 renal) of the same compound?
A: 7.52 µM

Q: What about the TGI (UO-31 renal) of the same compound?
A: 23.7 µM

Q: What about the GI50 (HS 578T breast) of the same compound?
A: 13.2 µM

Q: And the TGI (HS 578T breast)?
A: 46.1 µM

Q: And the GI50 (SNB-19 CNS)?
A: 16.2 µM

Q: And the TGI (SNB-19 CNS)?
A: 32.6 µM

Q: And the GI50 (HCT-116 colon)?
A: 14 µM

Q: And the TGI (HCT-116 colon)?
A: 28 µM

Q: What about the GI50 (SW-620 colon) of the same compound?
A: 20.1 µM

Q: What about the TGI (SW-620 colon) of the same compound?
A: 47.6 µM

Q: And the GI50 (MALME-3M melanoma)?
A: 14.5 µM

Q: What about the TGI (MALME-3M melanoma) of the same compound?
A: 28.8 µM

Q: What about the GI50 (ACHN renal) of the same compound?
A: 14.5 µM

Q: What about the TGI (ACHN renal) of the same compound?
A: 27.5 µM

Q: And the GI50 (OVCAR-4 ovarian)?
A: 15 µM

Q: What about the TGI (OVCAR-4 ovarian) of the same compound?
A: 36.9 µM

Q: What about the GI50 (COLO 205 colon) of the same compound?
A: 17.5 µM

Q: What about the TGI (COLO 205 colon) of the same compound?
A: 35.1 µM

Q: What about the GI50 (TK-10 renal) of the same compound?
A: 29 µM

Q: What about the TGI (TK-10 renal) of the same compound?
A: 77.3 µM

Q: What about the GI50 (MCF7 breast) of the same compound?
A: 13.5 µM

Q: What about the TGI (MCF7 breast) of the same compound?
A: 31.6 µM
